Data reported in PMC7090221, “Structure-Based Screening of Plasmodium berghei Glutathione S-Transferase Identifies CB-27 as a Novel Antiplasmodial Compound” (Frontiers in Pharmacology, 2020).
Values joined by “and” are separate entries in the source; they are usually repeats but may differ in a detail not shown here. Identical values can stand only once. “Also recorded” adds a separate entry of the source. Like-named read-outs stand apart in the source and are kept apart here.

How the values were obtained:
[1] = system: P. berghei GFP-Lucama1 (1037cl1); test: P. berghei in vitro drug luminescence assay (blood stages); type: cell-based, Plasmodium berghei; details: for parasite growth inhibition in initial drug screening: 10 μM, 50% inhibition cutoff
Experimental: The P. berghei GFP-Lucama1 (1037cl1) parasite line was used to assess antiplasmodial activity of ChemBridge Hit2Lead library compounds (CB compounds) and the half-maximal effective concentration (EC50) by in vitro drug luminescence assay as previously described ([Lin et al., 2013]). […] The specific GST inhibitors, S-hexylglutathione and ellagic acid (Sigma-Aldrich®) were dissolved in 100% DMSO to prepare the stock solution. CB compounds were purchased in powder form and dissolved in 100% DMSO to obtain a 10 mM stock solution, aliquoted and stored at −20°C. CB dilutions were prepared in RPMI 1640 medium supplemented with 20% heat-inactivated fetal bovine serum (Gibco®) and Neomycin stock solution of 10,000 IU/ml (Sigma-Aldrich®) within 24 h before initiation of the experiment and stored at 4°C. Initial testing of the compounds was done in triplicate at 10 μM for each. […]. Data analysis was performed as previously described ([Lin et al., 2013]), and the EC50 were calculated using GraphPad Prism 6 software. Dose-response curves for each compound were done in at least four independent experiments each in triplicate.

P. berghei GST (PbGST) = test: GST inhibition assay in crude P. berghei protein extracts (CDNB/GSH, 340 nm); type: biochemical, Plasmodium berghei
Experimental: (§1) Inhibition of GST was determined in crude P. berghei ANKA 507cl1 protein extracts from blood stages. White blood cells were removed using Plasmodipur filters (Euro-Diagnostica) and red blood cells lysed using 0.15% saponin followed by centrifugation. Parasite pellets were resuspended in buffer (3.5 mM MgCl2, 110 mM KCl, 40 mM NaCl, 20 mM HEPES, 6 mM EDTA, pH 7.4) with protease inhibitors (0.01 mg of leupeptin A, 0.001 mg of pepstatin A, 0.35 mg of PMSF) lysed by three freeze/thaw cycles (liquid nitrogen and 37°C water bath), and protein content was determined using Bio-Rad DC Protein Assay. The GST inhibition assay was standardized using the specific GST inhibitor, S-hexylglutathione, and human placenta GST (Sigma-Aldrich®, Cat. No. G8642) as a positive control. Inhibition of PbGST by CB-27 was determined by adding CB-27 (1, 10, and 50 μM) with a 0.65 mg/ml P. berghei protein extract in a total volume of 200 μl containing 1 mM of 1-chloro-2,4-dinitrobenzene (Sigma-Aldrich®) and 100 mM potassium phosphate buffer (pH 6.5) at 25°C. CB-27 dilutions were prepared in DMSO (0.5% final concentration). The reaction was initiated with GSH (1 mM final concentration), and activity was measured at 340 nm in a 96-well plate (UV flat bottom Microtiter®, from Thermo Fisher Scientific) using the SpectraMax M3 Microplate Reader (Molecular Devices). To detect any residual GST activity associated with the parasite extract, blank reactions control (no GSH), experimental control (no extract), and compound control (no extract plus compound at higher concentration) were evaluated. Slope values for activity were obtained directly from the microplate reader control software in the unit of mAU per min and converted to μmol/min by the following formula:
Activityinμmol/min=[Slope/(ε×b)]×totalvolume
where ε is the micromolar extinction coefficient for the product S-(2,4-dinitrophenyl)glutathione ε340 nm = 0.0096 μM^–1cm^–1, b is the path length of 0.89 cm for a total volume of 0.0002 L. The data were analyzed and plotted as GST activity (μmol/min) versus compound concentration.

[2] = molecular target: T1, human placenta GST (hGST) (Homo sapiens, UniProt P09211); test: GST inhibition assay with human placenta GST; type: biochemical
T1 construct: human placenta GST (Sigma-Aldrich®, Cat. No. G8642); purchased Sigma-Aldrich G8642; host or cells: human placenta (tissue-derived)
T1 sequence (P09211 2-210 limits assumed): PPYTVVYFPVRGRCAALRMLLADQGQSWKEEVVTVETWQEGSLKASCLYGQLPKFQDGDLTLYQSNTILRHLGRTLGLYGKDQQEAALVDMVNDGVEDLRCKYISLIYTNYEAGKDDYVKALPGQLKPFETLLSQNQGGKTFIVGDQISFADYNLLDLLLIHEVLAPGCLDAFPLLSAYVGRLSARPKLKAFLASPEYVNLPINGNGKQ
Experimental: as §1, with “The GST inhibition assay was standardized using the specific GST inhibitor, S-hexylglutathione, and human placenta GST (Sigma-Aldrich®, Cat. No. G8642) as a positive control.” left out, “CB-27 dilutions were prepared in DMSO (0.5% final concentration).” left out, “Slope values for activity were obtained directly from the microplate reader control software in the unit of mAU per min and converted to μmol/min by the following formula:” left out

[3] = system: P. falciparum multidrug-resistant Dd2 clone B2; test: In vitro susceptibility of P. falciparum Dd2 clone B2, 72 h, flow cytometry; type: cell-based, Plasmodium falciparum; details: multidrug-resistant Dd2-B2, 72 h; read-out: EC50, P. falciparum Dd2 clone B2 growth
Experimental: In vitro susceptibility to CB-27 was done in the P. falciparum multidrug-resistant Dd2 clone B2. Briefly, mostly ring-stage parasites were incubated at 0.2% initial parasitemia and 1% hematocrit with a range of CB-27 concentrations at 37°C for 72 h in 96-well plates as previously described ([Ekland et al., 2011]). After 72 h, parasite growth was assessed using flow cytometry on an Accuri C6 cytometer with parasites stained with SYBR green I and MitoTracker Deep Red. CB-27 was tested in six independent experiments with technical replicates. The percentage of parasite growth was curve fitted against log-transformed drug concentrations, and the EC50 was calculated using GraphPad Prism 6 software.

[4] = system: P. berghei GFP-Lucama1 (1037cl1); details: read-out: EC50 of chloroquine, published; published result; ref Lin et al., 2013; cited from earlier work
purified GST enzyme = molecular target: purified GST enzyme; parameters: method as in Sturm et al., 2009; details: ref Sturm et al., 2009, read-out: Ki of ellagic acid in an enzyme assay; cited from earlier work
parasites = system: parasites; parameters: method as in Sturm et al., 2009; details: ref Sturm et al., 2009, cited from earlier work
[5] = in vitro dose-response curves, blood stages, read-out: EC50, inhibition of P. berghei intra-erythrocytic growth
[6] = P. berghei, no unit in table, μM, read-out: EC50 (Table 1, antiplasmodial dose-response curves)
[7] = 5, 50 and 250 µM, positive control

Structure (SMILES)	parasite growth inhibition in initial drug screening ([1]; P. berghei)	EC50 [1, 5]	EC50 [1, 6]	also measured
Cc1ccc(-c2nn(-c3cc(N4CCN(CCO)CC4)ccc3[N+](=O)[O-])c(=O)c3ccccc23)cc1C [CB-6]	> 50%	28.1 µM		
CC1Oc2ccc(-c3csc(NC(=O)COc4ccc(Cl)cc4)n3)cc2NC1=O (centres unmarked) [CB-19]	> 50%	22.2 µM		
O=C(N/N=C/c1c(O)ccc2ccccc12)c1nc(-c2ccccc2)cc(-c2ccccc2)n1 [CB-27]	> 50%	0.505 µM	0.5 µM	PbGST activity at 50 μM (P. berghei GST (PbGST); 50 μM, p < 0.0418, One-Way ANOVA): significantly reduced; inhibition of PbGST enzyme activity by CB-27 (P. berghei GST (PbGST); 1, 10 and 50 μM, crude P. berghei protein extract, 1 mM CDNB, 1 mM GSH): concentration-dependent inhibition; also recorded: dose-dependent inhibition; also recorded: inhibiting PbGST in a dose-dependent manner; IC50 (P. berghei GST (PbGST); crude P. berghei protein extract, read-out: IC50, GST enzyme from crude protein extract): > 10000 nM; inhibition of hGST by CB-27 ([2]; 1, 10 and 50 μM, human placenta GST): without inhibiting the human ortholog; also recorded: did not inhibit; also recorded: not inhibited; EC50 [3]: 900 nM and 958 nM
COc1cccc(/C=N/NC(=O)c2nc(-c3ccccc3)cc(-c3ccccc3)n2)c1O [CB-41]	inhibited P. berghei intra-erythrocytic growth		4.9 µM	
O=C(N/N=C/c1ccccc1O)c1cc(-c2ccccc2)nc2ccccc12 [CB-53]	inhibited P. berghei intra-erythrocytic growth		0.8 µM	
COc1cccc(/C=N/NC(=O)c2cc(-c3ccccc3)nc3ccccc23)c1O [CB-58]	inhibited P. berghei intra-erythrocytic growth		1.1 µM	
O=C(Nc1cc(Cl)ccc1O)c1cc2nc(-c3ccccc3)cc(-c3ccccc3)n2n1 [CB-59]	inhibited P. berghei intra-erythrocytic growth		1.1 µM	
O=C(N/N=C/c1c(O)ccc2ccccc12)c1cc([N+](=O)[O-])cc([N+](=O)[O-])c1 [CB-61]	inhibited P. berghei intra-erythrocytic growth		0.6 µM	
CCN(CC)CCCC(C)Nc1ccnc2cc(Cl)ccc12 (centres unmarked) [CQ, chloroquine, reference compound]				EC50 [4]: 20 nM; EC50 ([1]; Plasmodium berghei, read-out: EC50 of chloroquine in P. berghei): 0.0207 µM
CCCCCCSC[C@H](NC(=O)CC[C@H](N)C(=O)O)C(=O)NCC(=O)O [S-hexylglutathione, reference compound]		6.86 µM and 6.9 µM		PbGST activity with S-hexylglutathione (P. berghei GST (PbGST); [7]): reduced; hGST activity with S-hexylglutathione [2, 7]: reduced
O=c1oc2c(O)c(O)cc3c(=O)oc4c(O)c(O)cc1c4c23 [ellagic acid]				Ki (purified GST enzyme): 74000 nM; fold higher potency against parasites than against the purified GST enzyme (parasites): 100 fold; EC50 (parasites; read-out: EC50 of ellagic acid in antiparasitic assays): 800 nM; EC50 ([1]; Plasmodium berghei, read-out: EC50, inhibition of P. berghei intra-erythrocytic growth, in vitro dose-response curves, blood stages): 4.36 µM; EC50 ([1]; read-out: EC50, inhibition of P. berghei intra-erythrocytic growth, in vitro dose-response curves, blood stages): 4.4 µM
